Measured values: BindingDB's records for doi:10.1016/j.bmcl.2006.01.057 (Glaxosmithkline, 2006)

Target: Glycogen synthase kinase-3 beta (Homo sapiens, UniProt P49841)
Experiment: Kinase Inhibition SPA Assay
Settings: pH 7.2; 22 °C
Method: The biochemical activity of compounds was determined by incubation with specific enzyme and substrate in the presence 2.5 uM ATP/ [gamma-33P] ATP. After incubation, the reaction was stopped and the phosphorylated substrate was separated from nonincorporated radioactive ATP using Streptavidin-coated SPA beads (Amersham Pharmacia), counted using TopCount (Packard) to measure substrate-incorporated phosphate.

Sequence of Glycogen synthase kinase-3 beta (P49841 whole entry): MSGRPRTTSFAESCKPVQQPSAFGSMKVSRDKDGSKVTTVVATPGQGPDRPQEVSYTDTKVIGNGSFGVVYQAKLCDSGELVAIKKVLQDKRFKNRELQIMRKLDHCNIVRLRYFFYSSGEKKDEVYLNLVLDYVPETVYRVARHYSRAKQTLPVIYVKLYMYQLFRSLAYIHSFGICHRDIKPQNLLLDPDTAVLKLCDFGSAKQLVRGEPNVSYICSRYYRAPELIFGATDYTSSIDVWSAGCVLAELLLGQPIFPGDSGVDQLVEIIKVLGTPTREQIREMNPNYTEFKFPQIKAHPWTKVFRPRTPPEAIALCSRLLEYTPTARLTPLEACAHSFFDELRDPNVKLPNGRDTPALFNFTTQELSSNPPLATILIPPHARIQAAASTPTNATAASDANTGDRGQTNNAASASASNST

| Compound | IC50 |
| --- | --- |
| COc1cccc(-c2cn(C)c3c(N=NCc4ccncc4)ncnc23)c1 [4-[(1E)-{2-[7-(3-methoxyphenyl)-5-methyl-5H-pyrrolo[3,2-d]pyrimidin-4-yl]hydrazin-1-ylidene}methyl]pyridine] | 501 nM |
| COc1cccc(-n2ccc3c(N=NCc4ccncc4)ncnc32)c1 [4-[(1E)-{2-[7-(3-methoxyphenyl)-7H-pyrrolo[2,3-d]pyrimidin-4-yl]hydrazin-1-ylidene}methyl]pyridine] | 31.6 nM |
| COc1cccc(-n2cnc3c(N=NCc4ccncc4)ncnc32)c1 [9-(3-methoxyphenyl)-6-[(2E)-2-(pyridin-4-ylmethylidene)hydrazin-1-yl]-9H-purine] | 631 nM |

These reach a lower IC50. Values come first.

| IC50 | Compound |
| --- | --- |
| 6.3 nM | COc1cccc(-n2ncc3c(N=NCc4ccncc4)ncnc32)c1 [4-[(1E)-{2-[1-(3-methoxyphenyl)-1H-pyrazolo[3,4-d]pyrimidin-4-yl]hydrazin-1-ylidene}methyl]pyridine] |
| 5.01 nM | COc1cccc(-c2n[nH]c3c(N=NCc4ccncc4)ncnc23)c1 [4-[(1E)-{2-[3-(3-methoxyphenyl)-1H-pyrazolo[4,3-d]pyrimidin-7-yl]hydrazin-1-ylidene}methyl]pyridine] |
| 5.01 nM | COc1cccc(-c2c[nH]c3c(N=NCc4ccncc4)ncnc23)c1 [4-[(1E)-{2-[7-(3-methoxyphenyl)-5H-pyrrolo[3,2-d]pyrimidin-4-yl]hydrazin-1-ylidene}methyl]pyridine] |
